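How tested: cells in 96-well plates exposed to compound for 48 hours at five concentrations. At the TGI there is no net growth.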
Tests used:
Test in all cases: NCI anticancer screen, dose series, 48 h
[1] = test system: UACC-62 melanoma
[2] = test system: M14 melanoma
[3] = test system: NCI/ADR-RES ovarian
[4] = test system: HCT-116 colon
[5] = test system: LOX IMVI melanoma
[6] = test system: 786-0 renal
[7] = test system: SNB-75 CNS
[8] = test system: OVCAR-5 ovarian
[9] = test system: NCI-H522 lung
[10] = test system: HL-60(TB) leukemia

SMILES	TGI [1]	TGI [2]	TGI [3]	TGI [4]	TGI [5]	TGI [6]	TGI [7]	TGI [8]	TGI [9]	TGI [10]
CC1(C)[C@@H](Cn2ccc(=O)[nH]c2=O)CC[C@@]1(C)CO	> 100 µM	> 100 µM	> 100 µM	> 100 µM	> 100 µM	> 100 µM	> 100 µM	> 100 µM	–	–
COC(=O)C1=C(OC(=O)/C(=C/c2ccc(Cl)cc2)c2ccc(Cl)cc2)C(C(=O)OC)[C@@]2(O)[C@@H](C(=O)OC)[C@H](C)C[C@@H]1[C@@H]2C(=O)OC (some centres undefined)	> 100 µM	> 100 µM	> 100 µM	> 100 µM	> 100 µM	> 100 µM	> 100 µM	> 100 µM	> 67.3 µM	> 100 µM
CCOC(=O)CCC(NC(=O)Cc1ccc(Nc2nc3cc(F)c(F)cc3nc2C(=O)OCC)cc1)C(=O)OCC (centres undefined)	> 100 µM	> 100 µM	> 100 µM	> 100 µM	> 100 µM	> 100 µM	77.2 µM	> 100 µM	> 100 µM	50 µM
COc1cc(Nc2nc3ccccc3nc2C(=O)O)cc(OC)c1OC	–	> 100 µM	> 100 µM	> 100 µM	> 100 µM	> 100 µM	> 100 µM	> 100 µM	> 100 µM	> 100 µM
Cn1c(=O)c2c(ncn2CCNC(CO)C(O)c2ccc([N+](=O)[O-])cc2)n(C)c1=O (centres undefined)	> 100 µM	> 100 µM	> 100 µM	> 100 µM	> 100 µM	> 100 µM	–	–	> 100 µM	> 100 µM
O=C1C2SC34c5c2c2ccccc2n5CCC3CCCN14 (centres undefined)	> 100 µM	> 100 µM	> 100 µM	> 100 µM	> 100 µM	> 100 µM	–	> 100 µM	> 100 µM	> 100 µM
CO/N=C(\C)c1ccc(Nc2nc3ccccc3c3occc23)cc1	24.7 µM	30.2 µM	32.1 µM	27.9 µM	32.1 µM	27.2 µM	–	31.5 µM	24 µM	50.4 µM
O=C1c2ccccc2C(=O)c2c(NCC(O)CO)ccc(NCC(O)CO)c21 (centres undefined)	> 100 µM	–	> 100 µM	> 100 µM	> 100 µM	> 100 µM	> 100 µM	> 100 µM	> 100 µM	> 100 µM
CO[C@@]12C[C@@H](C)C3=CCC(C)=C3CC1=C(C)C(=O)O2	> 100 µM	> 100 µM	> 100 µM	> 100 µM	> 100 µM	> 100 µM	> 100 µM	> 100 µM	–	> 100 µM
COC(=O)c1c(O)ccc2c1c1c(n2Cc2cc(OC)cc(OC)c2)C(=O)c2ccccc2C1	> 100 µM	> 100 µM	63.1 µM	> 100 µM	> 100 µM	> 100 µM	34.5 µM	56.1 µM	–	> 100 µM
NC(N)=NCCN1CC2CCC(CC2)C1	> 100 µM	> 100 µM	> 100 µM	> 100 µM	> 100 µM	> 100 µM	98.7 µM	> 100 µM	> 100 µM	–
